# Results published in ChEMBL document CHEMBL5608215, “Development of amphipathic derivatives of thymol and carvacrol as potent broad-spectrum antibacterial agents” (Eur J Med Chem, 2024).
# What was measured:
# Type in all cases: functional
# [1] = test system: Pseudomonas aeruginosa; assay: Antibacterial activity against Pseudomonas aeruginosa ATCC27853 by CLSI based serial dilution method
# [2] = test system: Staphylococcus aureus; assay: Antibacterial activity against methicillin-resistant Staphylococcus aureus 21-5 by CLSI based serial dilution method
# [3] = test system: Enterococcus faecalis; assay: Antibacterial activity against Enterococcus faecalis ATCC29212 by CLSI based serial dilution method
# [4] = test system: Escherichia coli; assay: Antibacterial activity against Escherichia coli ATCC25922 by CLSI based serial dilution method
# [5] = test system: Staphylococcus aureus; assay: Antibacterial activity against Staphylococcus aureus ATCC29213 by CLSI based serial dilution method
# [6] = test system: Enterococcus; assay: Antibacterial activity against vancomycin-resistant Enterococcus ATCC51299 by CLSI based serial dilution method
Compound,MIC [1] [µg/mL],MIC [2] [µg/mL],MIC [3] [µg/mL],MIC [4] [µg/mL],MIC [5] [µg/mL],MIC [6] [µg/mL]
CCCCCNC(=O)C[N+](C)(C)CCCOc1cc(C)ccc1C(C)C.[Br-],> 128,16,16,32,8,32
CCCCNC(=O)C[N+](C)(C)CCCOc1cc(C)ccc1C(C)C.[Br-],> 128,32,64,128,32,128
CCCCCCN(CCCCCC)C(=O)C[N+](C)(C)CCCCOc1cc(C)ccc1C(C)C.[Br-],> 128,> 128,> 128,> 128,> 128,> 128
CCCCCNC(=O)C[N+](C)(C)CCCOc1cc(C(C)C)ccc1C.[Br-],128,32,16,32,8,32
CCCNC(=O)C[N+](C)(C)CCCOc1cc(C)ccc1C(C)C.[Br-],> 128,128,128,> 128,64,> 128
CCCCCNC(=O)C[N+](C)(C)CCCCOc1cc(C(C)C)ccc1C.[Br-],128,8,8,16,4,16
Cc1ccc(C(C)C)c(OCCC[N+](C)(C)CC(=O)N2CCOCC2)c1.[Br-],> 128,> 128,> 128,128,> 128,> 128
Cc1ccc(C(C)C)cc1OCCCCC[N+](C)(C)CC(=O)N(CC(C)C)CC(C)C.[Br-],64,4,4,32,2,64
Cc1ccc(C(C)C)c(O)c1 [THYMOL],> 128,> 128,> 128,128,> 128,> 128
CCCCCCNC(=O)C[N+](C)(C)CCCOc1cc(C)ccc1C(C)C.[Br-],32,4,4,16,4,8
CCCCCCN(CCCCCC)C(=O)C[N+](C)(C)CCCCCOc1cc(C)ccc1C(C)C.[Br-],> 128,> 128,> 128,> 128,> 128,> 128
Cc1ccc(C(C)C)c(OCCCC[N+](C)(C)CC(=O)N2CCSCC2)c1.[Br-],> 128,64,64,> 128,64,> 128
CCCCCCCNC(=O)C[N+](C)(C)CCCOc1cc(C)ccc1C(C)C.[Br-],16,8,2,4,1,4
CCCNC(=O)C[N+](C)(C)CCCCOc1cc(C(C)C)ccc1C.[Br-],> 128,> 128,64,128,64,> 128
CCCCNC(=O)C[N+](C)(C)CCCCCOc1cc(C(C)C)ccc1C.[Br-],> 128,16,16,> 64,16,128
CCCCCCNC(=O)C[N+](C)(C)CCCCOc1cc(C(C)C)ccc1C.[Br-],32,8,4,16,2,8
Cc1ccc(C(C)C)c(OCCC[N+](C)(C)CC(=O)N(CC(C)C)CC(C)C)c1.[Br-],> 128,8,8,64,4,16
CCCN(CCC)C(=O)C[N+](C)(C)CCCOc1cc(C(C)C)ccc1C.[Br-],> 128,64,32,128,32,128
CCCN(CCC)C(=O)C[N+](C)(C)CCCCCOc1cc(C)ccc1C(C)C.[Br-],> 128,8,8,64,8,16
CCCCCNC(=O)C[N+](C)(C)CCCCCOc1cc(C(C)C)ccc1C.[Br-],64,8,8,16,4,16
CCCCNC(=O)C[N+](C)(C)CCCCOc1cc(C)ccc1C(C)C.[Br-],> 128,16,64,128,16,128
CCCCCNC(=O)C[N+](C)(C)CCCCCOc1cc(C)ccc1C(C)C.[Br-],128,4,16,32,8,16
